Experiments:
Human primary T cell = assay: IL-2 ELISA, human primary T cell, anti-CD3+CD28+ whole cell assay; assay type: cell-based; settings: IL-2 by ELISA, human primary T cells stimulated with anti-CD3+CD28
Method: 2. IL-2 ELISA, Human Primary T Cell, Anti-CD3+CD28+ Assays
Human primary T cells were prepared as follows. Whole blood was obtained from a healthy volunteer, mixed 1:1 with PBS, layered on to Ficoll Hypaque (Amersham Pharmacia Biotech, Piscataway, N.J., Catalog #17-1440-03) in 2:1 blood/PBS:ficoll ratio and centrifuged for 30 minutes at 4° C. at 1750 rpm. The cells at the serum:ficoll interface were recovered and washed twice with 5 volumes of PBS. These freshly isolated human peripheral blood mononuclear cells were cultured in Yssel's medium containing 40 U/mL IL2 in a flask pre-coated with 1 μg/mL αCD3 and 5 μg/mL αCD28 (Anti-Human CD3, BD Pharmingen Catalog #555336, Anti-Human CD28, Beckman Coulter Catalog #1M1376). The cells were stimulated for 3-4 days, then transferred to a fresh flask and maintained in RPMI (RPMI-1640 with L-Glutamine; Mediatech, Inc., Herndon Va., cat. #10-040-CM) with 10% FBS and 40 U/mL IL-2. The primary T-cells were then washed twice with PBS to remove the IL-2.
Human primary T cells (100,000 cells per well) were pre-incubated with or without test compound in Yssel's medium for 1 hr at 37° C. Cells were then stimulated by transferring them to round-bottom 96-well plates pre-coated with 1 μg/ml αCD3 and 5 μg/ml αCD28. For counter assay, cells were instead stimulated by adding 8× stock solutions of PMA and ionomycin in Yssels (for final concentrations of 0.5 ng/ml PMA and 0.1 μM ionomycin, both from Calbiochem). Cells were incubated at 37° C. for 24 hours before 100 μL supernatants were harvested for quantification of IL-2 by ELISA using Human IL-2 Duoset ELISA Kit from R and D Systems, Cat. # DY202E.
(§1) Several subject compounds were tested according to procedures in the “Characterization of Functional Properties” section. PKC kinase activity was measured using the procedure Section A.1 (Protein Kinase C assay) with the appropriate isoform. The whole cell assay was run according to the procedure in Section A.2 (IL-2 ELISA, Human primary T cell, anti-CD3+CD28+ Assays). […] Blank entries indicate that the IC50 was not determined.

PKC-alpha = biological target: T1, PKC-alpha (Homo sapiens, UniProt P17252); assay: Protein Kinase C assay (fluorescence polarization), PKC-alpha; assay type: biochemical
T1 construct: purchased Oxford Biomedical Research
Method: (§2) The inhibition of PKC activity was measured by monitoring the production of phosphorylated peptide by fluorescence polarization at different concentrations of the inhibitor. Reactions were carried out in 96-well plate format with a total volume of 20 μL containing 20 mM HEPES, pH 7.4, 5 mM MgCl2, 0.2 mM CaCl2, 1 mM DTT, 0.02% Brij-35, 0.1 mg/mL phosphatidylserine, 0.02 mg/mL dioleoyl-sn-glycerol and 5 μM each of ATP and the peptide substrate. Compounds were first diluted serially in DMSO and then transferred to a solution containing the above concentrations of HEPES, MgCl2, CaCl2, DTT, and Brij-35 to yield 5× compound solutions in 2% DMSO, which was then added to the reaction solution. Reactions were initiated by the addition of PKC at a typical concentration as described in the table below, and then allowed to incubate at room temperature for 20 minutes. At the end of this time, a combination of quench (EDTA) and detection (peptide tracer and antibody) reagents was added using the protocol of Invitrogen P2748 (Carlsbad, Calif.), a Protein Kinase C Fluorescence polarization Assay Kit. After a 30 minute period of incubation, the amount of phosphorylated peptide generated was measured by fluorescence polarization (Ex=485 nm, Em=535 nm) using a Tecan Polarian instrument (Switzerland).
Human recombinant PKC α is obtained from Oxford Biomedical Research and is used under the assay conditions as described under Section A.1 above.
as §1

PKC-beta = biological target: T2, PKC-beta (Homo sapiens, UniProt P05771); assay: Protein Kinase C assay (fluorescence polarization), PKC-beta; assay type: biochemical
T2 construct: purchased Oxford Biomedical Research
Method: as §2
Human recombinant PKC β1 is obtained from Oxford Biomedical Research and is used under the assay conditions as described under Section A.1 above.
as §1

PKC-delta = biological target: T3, PKC-delta (Homo sapiens, UniProt Q05655); assay: Protein Kinase C assay (fluorescence polarization), PKC-delta; assay type: biochemical
T3 construct: purchased Oxford Biomedical Research
Method: as §2
Human recombinant PKC δ is obtained from Oxford Biomedical Research and is used under the assay conditions as described under Section A.1 above.
as §1

PKC-epsilon = biological target: T4, PKC-epsilon (Homo sapiens, UniProt Q02156); assay: Protein Kinase C assay (fluorescence polarization), PKC-epsilon; assay type: biochemical
T4 construct: purchased Upstate Biotechnologies, Temecula, CA 14-518
T4 sequence (Q02156 1-737): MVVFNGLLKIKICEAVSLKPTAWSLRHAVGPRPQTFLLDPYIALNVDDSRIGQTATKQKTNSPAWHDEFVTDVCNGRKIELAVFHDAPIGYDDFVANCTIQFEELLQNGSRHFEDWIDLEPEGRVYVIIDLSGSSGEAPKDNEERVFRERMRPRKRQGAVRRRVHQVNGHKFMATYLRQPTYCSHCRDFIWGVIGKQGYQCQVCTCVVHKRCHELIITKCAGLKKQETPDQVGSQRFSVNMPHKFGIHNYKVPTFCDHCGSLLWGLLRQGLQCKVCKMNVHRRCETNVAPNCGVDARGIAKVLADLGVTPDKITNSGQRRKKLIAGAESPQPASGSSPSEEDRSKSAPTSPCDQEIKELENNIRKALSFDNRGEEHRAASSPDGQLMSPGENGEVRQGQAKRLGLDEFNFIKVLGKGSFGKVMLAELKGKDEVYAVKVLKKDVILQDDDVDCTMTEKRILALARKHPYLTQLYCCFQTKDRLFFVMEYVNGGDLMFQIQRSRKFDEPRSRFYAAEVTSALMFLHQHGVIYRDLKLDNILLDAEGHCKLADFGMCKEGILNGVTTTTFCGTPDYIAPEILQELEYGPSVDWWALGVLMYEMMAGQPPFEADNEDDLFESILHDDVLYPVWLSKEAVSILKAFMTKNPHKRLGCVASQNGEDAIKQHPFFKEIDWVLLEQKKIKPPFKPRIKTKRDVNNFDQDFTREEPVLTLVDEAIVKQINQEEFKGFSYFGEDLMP
Method: as §2
Human recombinant PKC […] is obtained from Oxford Biomedical Research and is used under the assay conditions as described under Section A.1 above.
as §1

PKC-theta = biological target: T5, PKC-theta (Homo sapiens, UniProt Q04759); assay: Protein Kinase C assay (fluorescence polarization), PKC-theta; assay type: biochemical
T5 construct: purchased Upstate Biotechnologies, Temecula, CA 14-444
Method: as §2
Human recombinant PKC θ is used under the assay conditions as described above.
as §1

T2 sequence (P05771 whole entry): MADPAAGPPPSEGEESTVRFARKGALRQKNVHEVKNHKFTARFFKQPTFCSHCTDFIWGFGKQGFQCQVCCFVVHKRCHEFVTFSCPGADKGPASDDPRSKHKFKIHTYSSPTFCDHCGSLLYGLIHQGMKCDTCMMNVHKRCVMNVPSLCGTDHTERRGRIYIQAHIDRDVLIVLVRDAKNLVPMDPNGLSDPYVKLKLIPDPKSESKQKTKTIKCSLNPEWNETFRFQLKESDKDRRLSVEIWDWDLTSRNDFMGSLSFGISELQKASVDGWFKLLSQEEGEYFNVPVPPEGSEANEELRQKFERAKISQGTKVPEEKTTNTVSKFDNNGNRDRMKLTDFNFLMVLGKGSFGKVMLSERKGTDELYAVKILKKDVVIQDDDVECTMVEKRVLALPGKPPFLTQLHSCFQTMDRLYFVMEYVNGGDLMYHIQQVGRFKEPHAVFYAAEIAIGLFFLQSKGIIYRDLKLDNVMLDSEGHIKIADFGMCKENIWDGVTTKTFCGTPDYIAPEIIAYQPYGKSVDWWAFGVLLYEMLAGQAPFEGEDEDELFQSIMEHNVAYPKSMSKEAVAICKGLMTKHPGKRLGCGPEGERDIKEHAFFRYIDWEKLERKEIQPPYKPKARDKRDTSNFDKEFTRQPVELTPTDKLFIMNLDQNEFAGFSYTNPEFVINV
T3 sequence (Q05655 whole entry): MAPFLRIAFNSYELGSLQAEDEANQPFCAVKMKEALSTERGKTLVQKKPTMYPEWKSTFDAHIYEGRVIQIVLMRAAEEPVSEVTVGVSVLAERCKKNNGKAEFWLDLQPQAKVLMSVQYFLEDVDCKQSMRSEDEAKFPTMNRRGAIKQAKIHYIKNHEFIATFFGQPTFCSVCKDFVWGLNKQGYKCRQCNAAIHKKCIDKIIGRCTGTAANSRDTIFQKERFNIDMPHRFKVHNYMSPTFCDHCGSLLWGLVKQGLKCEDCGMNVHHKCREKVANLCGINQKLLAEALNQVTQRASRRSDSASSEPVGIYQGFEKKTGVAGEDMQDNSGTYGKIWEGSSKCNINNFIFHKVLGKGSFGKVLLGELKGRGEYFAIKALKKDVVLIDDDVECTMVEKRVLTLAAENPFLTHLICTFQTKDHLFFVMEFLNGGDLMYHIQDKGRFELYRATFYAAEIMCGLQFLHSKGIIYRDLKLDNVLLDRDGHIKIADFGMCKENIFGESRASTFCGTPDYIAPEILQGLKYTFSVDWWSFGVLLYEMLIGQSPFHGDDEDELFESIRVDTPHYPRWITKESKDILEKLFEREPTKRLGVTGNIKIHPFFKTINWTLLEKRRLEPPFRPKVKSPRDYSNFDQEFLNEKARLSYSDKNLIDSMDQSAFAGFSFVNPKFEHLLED
T5 sequence (Q04759 whole entry): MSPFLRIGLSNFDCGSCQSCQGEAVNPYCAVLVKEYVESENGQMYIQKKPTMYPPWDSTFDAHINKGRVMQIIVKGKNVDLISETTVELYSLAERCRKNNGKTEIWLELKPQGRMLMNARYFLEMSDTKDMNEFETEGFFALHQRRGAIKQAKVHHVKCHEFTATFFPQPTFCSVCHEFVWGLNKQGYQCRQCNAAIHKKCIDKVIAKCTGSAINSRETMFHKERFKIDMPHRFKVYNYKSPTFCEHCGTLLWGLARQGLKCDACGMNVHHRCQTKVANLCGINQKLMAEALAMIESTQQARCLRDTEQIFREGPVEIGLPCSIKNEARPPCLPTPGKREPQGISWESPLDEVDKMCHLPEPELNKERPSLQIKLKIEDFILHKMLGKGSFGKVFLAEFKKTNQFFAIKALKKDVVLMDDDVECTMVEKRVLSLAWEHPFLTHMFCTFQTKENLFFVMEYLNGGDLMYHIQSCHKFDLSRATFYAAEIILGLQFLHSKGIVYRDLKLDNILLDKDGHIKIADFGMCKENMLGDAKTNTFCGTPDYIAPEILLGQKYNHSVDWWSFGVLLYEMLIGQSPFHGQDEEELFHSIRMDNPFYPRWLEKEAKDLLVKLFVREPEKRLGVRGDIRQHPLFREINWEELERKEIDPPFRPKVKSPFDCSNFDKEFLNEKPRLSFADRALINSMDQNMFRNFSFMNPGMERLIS

Row | Compound | IC50 (Human primary T cell; T-cell) | IC50 (PKC-alpha) | IC50 (PKC-beta) | IC50 (PKC-delta) | IC50 (PKC-epsilon) | IC50 (PKC-theta) | IC50 (Human primary T cell)
1 | CC1(C)CC(Nc2nc(Nc3ccc4c(c3)-n3nnnc3CO4)ncc2F)CC(C)(C)N1 [Compound 1-1, N2-(4H-benzo[b]tetrazolo[1,5-d][1,4]oxazin-8-yl)-5-fluoro-N4-(2,2,6,6-tetramethylpiperidin-4-yl)pyrimidine-2,4-diamine] | < 0.25 µM | < 0.25 µM | < 0.25 µM | < 0.25 µM | < 0.25 µM | < 0.25 µM | 
2 | CN1C(C)(C)CC(Nc2nc(Nc3ccc4c(c3)-n3nnnc3CO4)ncc2F)CC1(C)C [Compound 1-2, N2-(4H-benzo[b]tetrazolo[1,5-d][1,4]oxazin-8-yl)-5-fluoro-N4-(1,2,2,6,6-pentamethylpiperidin-4-yl)pyrimidine-2,4-diamine] | < 0.25 µM | < 0.25 µM | < 0.25 µM | < 0.25 µM | < 0.25 µM | < 0.25 µM | 
3 | CC1(C)CC(Nc2nc(Nc3ccc4c(c3)-n3nnnc3C(F)(F)O4)ncc2F)CC(C)(C)N1 [Compound 1-5, N2-(4,4-difluoro-4H-benzo[b]tetrazolo[1,5-d][1,4]oxazin-8-yl)-5-fluoro-N4-(2,2,6,6-tetramethylpiperidin-4-yl)pyrimidine-2,4-diamine] | 0.5 to 1 µM | < 0.25 µM | < 0.25 µM | < 0.25 µM | < 0.25 µM | < 0.25 µM | 
4 | CN1C(C)(C)CC(Nc2nc(Nc3ccc4c(c3)-n3nnnc3C(F)(F)O4)ncc2F)CC1(C)C [Compound 1-6, N2-(4,4-difluoro-4H-benzo[b]tetrazolo[1,5-d][1,4]oxazin-8-yl)-5-fluoro-N4-(1,2,2,6,6-pentamethylpiperidin-4-yl)pyrimidine-2,4-diamine] | 0.25 to 0.5 µM | < 0.25 µM | < 0.25 µM | < 0.25 µM | < 0.25 µM | < 0.25 µM | 
5 | CC1(C)CC(Nc2nc(Nc3ccc4c(c3)-n3nnnc3C(C)(C)O4)ncc2F)CC(C)(C)N1 [Compound 1-7, N2-(4,4-dimethyl-4H-benzo[b]tetrazolo[1,5-d][1,4]oxazin-8-yl)-5-fluoro-N4-(2,2,6,6-tetramethylpiperidin-4-yl)pyrimidine-2,4-diamine] | < 0.25 µM | < 0.25 µM | < 0.25 µM | < 0.25 µM | < 0.25 µM | < 0.25 µM | 
6 | CN1C(C)(C)CC(Nc2nc(Nc3ccc4c(c3)-n3nnnc3C(C)(C)O4)ncc2F)CC1(C)C [Compound 1-8, N2-(4,4-dimethyl-4H-benzo[b]tetrazolo[1,5-d][1,4]oxazin-8-yl)-5-fluoro-N4-(1,2,2,6,6-pentamethylpiperidin-4-yl)pyrimidine-2,4-diamine] | < 0.25 µM | < 0.25 µM | < 0.25 µM | < 0.25 µM | < 0.25 µM | < 0.25 µM | 
7 | N2-(4H-benzo[b]pyrrolo[1,2-d][1,4]oxazin-8-yl)-5-fluoro-N4-(1,2,2,6,6-pentamethylpiperidin-4-yl)pyrimidine-2,4-diamine [Compound 1-4] |  |  |  |  |  |  | 1 to 5 µM
8 | N2-(4H-benzo[b]pyrrolo[1,2-d][1,4]oxazin-8-yl)-5-fluoro-N4-(2,2,6,6-tetramethylpiperidin-4-yl)pyrimidine-2,4-diamine [Compound 1-3] |  |  |  |  |  |  | 1 to 5 µM

Second part, led by results:

Row | IC50 (Human primary T cell; T-cell) | IC50 (PKC-alpha) | IC50 (PKC-beta) | IC50 (PKC-delta) | IC50 (PKC-epsilon) | IC50 (PKC-theta) | Compound | IC50 (Human primary T cell)
9 | 0.5 to 1 µM |  |  |  |  |  | CC1(C)CC(Nc2nc(Nc3ccc4c(c3)-c3nnnn3C(C)(C)O4)ncc2F)CC(C)(C)N1 [Compound 1-9, N2-(5,5-dimethyl-5H-benzo[e]tetrazolo[1,5-c][1,3]oxazin-9-yl)-5-fluoro-N4-(2,2,6,6-tetramethylpiperidin-4-yl)pyrimidine-2,4-diamine] | 
10 | < 0.25 µM |  |  |  |  |  | CN1C(C)(C)CC(Nc2nc(Nc3ccc4c(c3)-c3nnnn3C(C)(C)O4)ncc2F)CC1(C)C [Compound 1-10, N2-(5,5-dimethyl-5H-benzo[e]tetrazolo[1,5-c][1,3]oxazin-9-yl)-5-fluoro-N4-(1,2,2,6,6-pentamethylpiperidin-4-yl)pyrimidine-2,4-diamine] | 
11 | < 0.25 µM | < 0.25 µM | < 0.25 µM | < 0.25 µM | < 0.25 µM | < 0.25 µM | CC1(C)CC(Nc2nc(Nc3ccc4c(c3)-n3nnnc3C3(CCC3)O4)ncc2F)CC(C)(C)N1 [Compound 1-11, N2-{2,1-Spiro-butane-4H-tetrazolo[5,1-c][1,4]benzoxazin-8-yl}-5-fluoro-N4-(2,2,6,6-tetramethylpiperidin-4-yl)-2,4-pyrimidinediamine] | 
12 |  | < 0.25 µM | < 0.25 µM | < 0.25 µM | < 0.25 µM | < 0.25 µM | CN1C(C)(C)CC(Nc2nc(Nc3ccc4c(c3)-n3nnnc3C3(CCC3)O4)ncc2F)CC1(C)C [Compound 1-12, N2-{2,1-Spiro-butane-4H-tetrazolo[5,1-c][1,4]benzoxazin-8-yl}-5-fluoro-N4-(1,2,2,6,6-pentamethylpiperidin-4-yl)-2,4-pyrimidinediamine] | < 0.25 µM
13 | < 0.25 µM | < 0.25 µM | < 0.25 µM | < 0.25 µM | < 0.25 µM | < 0.25 µM | CC1Oc2ccc(Nc3ncc(F)c(NC4CC(C)(C)NC(C)(C)C4)n3)cc2-n2nnnc21 (stereo not shown) [Compound 1-17] | 
14 | < 0.25 µM | < 0.25 µM | < 0.25 µM | < 0.25 µM | < 0.25 µM | < 0.25 µM | CC1Oc2ccc(Nc3ncc(F)c(NC4CC(C)(C)N(C)C(C)(C)C4)n3)cc2-n2nnnc21 (stereo not shown) [Compound 1-18] | 
15 | < 0.25 µM | < 0.25 µM | < 0.25 µM | < 0.25 µM | < 0.25 µM | < 0.25 µM | CC1(C)CC(CNc2nc(Nc3ccc4c(c3)-n3nnnc3CO4)ncc2F)C(C)(C)N1 (stereo not shown) [Compound 2-1, N2-(4H-benzo[b]tetrazolo[1,5-d][1,4]oxazin-8-yl)-5-fluoro-N4-((2,2,5,5-tetramethylpyrrolidin-3-yl)methyl)pyrimidine-2,4-diamine] | 

Source: patent US9453028B2, “Protein kinase C inhibitors and uses thereof” (Rigel Pharmaceuticals, Inc., priority 2009, dated 2016)
